Earlier results as cited in patent US20100022462A1, “APPETITE S[…] COLON CLEANSING COMPOSITION” (priority 2008, published 2010).

Tested on: lipase
Details: background statement on the marketed drug; no test conditions given

CCCCCCCCCCC[C@@H](C[C@@H]1OC(=O)[C@H]1CCCCCC)OC(=O)[C@H](CC(C)C)NC=O [XENICAL, orlistat]
decreasing dietary fat absorption: 30%
